Patent publication EP2265599B1, “CRYSTAL FORM OF PHENYLAMINOPYRIMIDINE DERIVATIVE” (Natco Pharma Limited, priority 2008, dated 2009)

Experiments:
5310 cells [1] = experiment: In vitro angiogenic assay (conditioned media on human dermal endothelial cells), 5310; type: cell-based; details: control conditions and after radiation
Procedure: (§1) The in vitro angiogenesis of 4910, 5310 and U87 glioma cells and MDAMB231 and ZR71 breast cancer cells in the presence of specified concentrations of compounds were determined as follows, cells (2x10^4/well) were seeded in 8-well chamber slides and were treated with various concentrations of test compounds. After a 24 h incubation period, the conditioned media was removed and added to a 4x 10^4 human dermal endothelial cell (monolayer in 8-well chamber slides) and the human dermal endothelial cells were allowed to grow for 72 h. Cells were then fixed in 3.7% formaldehyde and stained with H&E and photographed.

ZR-71 = experiment: Matrigel invasion assay (modified Boyden chamber), ZR-71; type: cell-based; details: cells treated 48 h
Procedure: (§2) The in vitro invasiveness of 4910, 5310 and U87 glioma cells and MDAMB231 and ZR71 breast cancer cells in the presence of specified concentrations of compounds were assessed using a modified Boyden chamber assay. Cells were treated with these compounds for 48 h. 1x10^6 cells were suspended in 600µl of serum-free medium supplemented with 0.2% BSA and placed in the upper compartment of the transwell chambers (Coming Costar Fischer Scientific Cat #07-200-158, Pittsburgh PA) coated with Matrigel (0.7 mg/ml). The lower compartment of the chamber was filled with 200 µl of serum medium and the cells were allowed to migrate for 24 h. After incubation, the cells were fixed and stained with Hema-3 and quantified as previously described (Mohanam et al. 1993). The migrated cells were imaged microscopically to determine the reduction in invasiveness induced by the compounds of this invention.
(§3) The in vitro invasiveness of 4910, 5310 and U87 glioma cells and MDAMB231 and ZR71 breast cancer cells in the presence of specified concentrations of compounds were assessed using a modified Boyden chamber assay. Cells were treated with these compounds for 48 h.

ZR71 = experiment: Western blot analysis for AKT, ERK and Pi3k, ZR71; type: cell-based
Procedure: (§4) Western blot analysis of 4910, 5310 and U87 glioma cells and MDAMB231 and ZR71 breast cancer cells in the presence of specified concentrations of compounds were assessed as per standard protocols. Cells were treated with AN019, AN024 or Temozolomide at the specified concentrations. 24h after treatment, cells were collected and cell lysates extracted. Equal quantities of proteins were fractionated by SDS-PAGE. The fractionated proteins were blotted on to nylon membranes and immunoprobed for AKT, ERK and Pi3k. Breast cancer cell protein isolates were additionally immunoprobed for EGFR, ErbB1, ErbB2 and ErbB3.

5310 cells [2] = experiment: Western blot analysis for AKT, ERK and Pi3k, 5310; type: cell-based
Procedure: as §4

U87 = experiment: Matrigel invasion assay (modified Boyden chamber), U87; type: cell-based; details: cells treated 48 h
Procedure: as §2, §3

K562 cells = experiment: Anti-CML activity in nude mice implanted with K562 cells (leukemia growth index, LGI)
Baf3Wt = experiment: In vivo anti-leukemic activity, blast cell count in blood smears, Baf3Wt implanted nude mice; details: Imatinib 10mg/kg, AN019 20mg/kg, AN024 20mg/kg, oral gavage or ip from day 15; up to day 42
Source text: (§5) Blood smears were obtained via the tail vein or via the femoral vein every 6th day and blast cells counted and graphically represented.
(§6) Abdominal swelling and decrease in activity was monitored daily, blood smear taken via the tail vein or the femoral vein every 6th day and H&E stained as per standard protocols. 42 days after implantation, mice were sacrificed and spleens harvested.
(§7) Nude mice were intraperitoneally implanted with Baf3 mutant cells (wt, T315I, M351T or E255K). […] Blood was drawn from the femoral vein or tail vein every 6th day and blast cell count determined and graphically represented.

MDA-MB-231 cells = experiment: In vitro angiogenic assay (conditioned media on human dermal endothelial cells), MDA-MB-231; type: cell-based; details: control condition and after radiation
Procedure: as §1

[3] = test system: Glioma xenograft cells 4910; experiment: In vitro angiogenic assay (conditioned media on human dermal endothelial cells), 4910; type: cell-based; details: 4910 cells, with and without radiation
Procedure: as §1

K5621uc cells = experiment: Drug temporal penetrance (Tp) after stopping drug treatment; type: in vivo, nude mice; details: AN019 20mg/kg, AN024 20mg/kg, Imatinib 10mg/kg, daily ip from day 15, stopped on day 35, imaged till day 45
Procedure: The temporal penetrance was calculated applying the following equation, Tp=. (((P)/(n))a -((P)/(n))ter)/(((P)/(n))a -((P)/(n))b) [formula]
Where: • P=photon counts at day 'a', day 'ter', or day 'b' where 'a' is the day when drug treatment was stopped and 'ter' is the day when the experiment was terminated and 'b' is the day where P is minimum after day a but before day 'ter'. • n=number of animals alive when P was measured.
The animals were imaged at 6 day intervals post transplantation. […] Drug treatment was stopped on day 35 and animals were imaged till day 45, and calculated as described in methods.

ZR-71 cells = experiment: In vitro angiogenic assay (conditioned media on human dermal endothelial cells), ZR-71; type: cell-based
Procedure: as §1

5310 = experiment: Matrigel invasion assay (modified Boyden chamber), 5310; type: cell-based; details: cells treated 48 h
Procedure: as §2, §3

[4] = test system: K562 luc human leukemia cells; experiment: Drug effectiveness (De) from in vivo luciferase studies; set-up: species or system nude mice
Source text: [formula] Where: • Σalive = total number of mice alive per concentration at the end of experiment times photon count, Eluc = total number of mice alive showing luciferase expression per concentration at end of experiment and c represents control untreated animals times photon count and ∑c-initial represents the initial number of animals in control at start of experiment times photon count.

Baf3T315I = experiment: In vivo anti-leukemic activity, blast cell count in blood smears, Baf3T315I implanted nude mice; details: Imatinib 10mg/kg, AN019 20mg/kg, AN024 20mg/kg, oral gavage or ip from day 15; up to day 42
Source text: as §5, §6, §7

[5] = test system: K562 luciferase expressing cells; experiment: Leukemic survival study, K562 luciferase expressing cells implanted intraperitoneally; type: in vivo, nude mice
4910 = experiment: Matrigel invasion assay (modified Boyden chamber), 4910; type: cell-based, human; details: cells treated 48 h
Procedure: as §2, §3

Cc1ccc(NC(=O)c2cc(C(F)(F)F)cc(C(F)(F)F)c2)cc1Nc1nccc(-c2cccnc2)n1 [AN019, (3,5-bis trifluoromethyl)-N-[4-methyl-3-(4-pyridin-3yl-pyrimidin-2ylamino)-phenyl]-benzamide]
inhibition of angiogenesis (5310 cells [1]): inhibition of angiogenesis was greater in control conditions than after radiation treatment | +Radiation % Invasion (ZR-71; ZR-71, with radiation): 19% | -Radiation % Invasion (ZR-71; ZR-71, without radiation): 33% | PI3k levels (ZR71; ZR71 (cell line by context), with and without radiation): absent in AN019 treatments both with and without radiation | AKT levels (ZR71; ZR71, unirradiated and after radiation): decrease in AKT levels, which was enhanced after radiation | AKT expression levels (5310 cells [2]): decrease in AKT expression levels | Levels of PI3k (5310 cells [2]; without and after radiation): almost undetectable in AN019 treated cells without radiation but reappeared after radiation treatment | +Radiation % Invasion (U87; U87, with radiation): 18% | -Radiation % Invasion (U87; U87, without radiation): 18% | physiological, phenotypic or behavioral abnormality (K562 cells; K562 implanted nude mice, ip 10mg/kg): no abnormal physiological, phenotypic or behavioral abnormality | LGI after initiation of drug treatment (time course) (K562 cells; daily ip injections of 10mg/kg from day 15, blood drawn every 6th day): steady decline in LGI | blast cell count in blood smears (Baf3Wt): complete regression of leukemic blast cells | inhibition of angiogenesis (MDA-MB-231 cells): a slight inhibition was observed in both control and radiation treatments | inhibition of angiogenesis [3]: inhibition of angiogenesis similar to MDA-MB-231 cells with an increase in angiogenic inhibition after radiation | Tp (temporal penetrance) (K5621uc cells): 2.0 | inhibition of angiogenesis (ZR-71 cells): complete inhibition of angiogenesis | +Radiation % Invasion (5310; 5310, with radiation): 6% | -Radiation % Invasion (5310; 5310, without radiation): 5% | De (drug effectiveness) ([4]; 5mg/kg): 25.82% | De (drug effectiveness) ([4]; 10mg/kg): 78.20% | De (drug effectiveness) ([4]; 20mg/kg): 83.40% | De (drug effectiveness) ([4]; 40mg/kg): 85.20% | blast cell count in blood smears (Baf3T315I): significant decrease in blast cell count | curative effect after withdrawal of drug treatment (animals cured at day 58) ([5]; drug treatment stopped at day 42, based on luminescence (Fig. 20)): continued to show curative effect | Blast cell count from blood smears after withdrawal of drug treatment ([5]; drug treatment withdrawn on day 42 (Fig. 21)): showed effectiveness after withdrawal of drug treatment | mortality ([5]; treatment from day 15 till day 42, then withdrawn, AN024 death determined to be other than leukemia): did not show any mortality | animals showing no signs of leukemia / complete absence of leukemic symptoms ([5]; treatment from day 15 till day 42, then withdrawn, AN024 on day 55): 7 of the 10 animals | +Radiation % Invasion (4910; 4910, with radiation): 15% | -Radiation % Invasion (4910; 4910, without radiation): 42%
